From patent US4968669A, “Parathyroid hormone antagonists” (Merck & Co., Inc., priority 1989, dated 1990)

What was measured:
[1] = molecular target: T1, PTH receptor in bovine renal cortical plasma membranes (Bos taurus, UniProt Q1LZF7); assay: PTH binding assay, bovine renal cortical plasma membranes, radioligand [Nle8,18,125I-Tyr34]bPTH(1-34)NH2; conditions: 30 min at 21° C
T1 construct: from tissue; host or cells: bovine renal cortex, plasma membranes
T1 sequence (Q1LZF7 29-589): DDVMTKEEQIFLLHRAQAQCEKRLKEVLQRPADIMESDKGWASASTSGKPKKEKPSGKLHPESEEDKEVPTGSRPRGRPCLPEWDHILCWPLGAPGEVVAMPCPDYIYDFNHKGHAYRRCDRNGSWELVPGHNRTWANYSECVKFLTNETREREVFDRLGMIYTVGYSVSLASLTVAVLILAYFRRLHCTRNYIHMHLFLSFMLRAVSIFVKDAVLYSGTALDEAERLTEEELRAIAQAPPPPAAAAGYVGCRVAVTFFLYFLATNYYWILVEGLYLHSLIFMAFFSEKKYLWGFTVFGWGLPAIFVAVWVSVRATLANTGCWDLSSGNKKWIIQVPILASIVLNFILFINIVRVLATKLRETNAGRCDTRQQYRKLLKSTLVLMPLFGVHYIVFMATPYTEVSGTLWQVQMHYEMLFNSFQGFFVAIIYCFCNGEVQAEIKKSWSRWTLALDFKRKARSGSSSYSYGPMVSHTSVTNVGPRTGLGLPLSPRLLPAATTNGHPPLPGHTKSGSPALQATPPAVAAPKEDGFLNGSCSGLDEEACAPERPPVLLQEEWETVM
Protocol: Bovine renal cortical plasma membranes were incubated with radioligand (25,000 cpm) in the absence or presence of PTH analogues in a Tris containing buffer (250 μl) for 30 min. at 21° C. Once equilibrium was reached, bound and free radioligand were separated by centrifugation.

[2] = molecular target: T2, I^125 -labeled PTH binding to rat osteosarcoma cell line ROS 17/2.8 (Rattus norvegicus, UniProt P25961); assay: PTH binding assay, ROS 17/2.8 cells
T2 construct: bone-derived rat osteosarcoma cell line ROS 17/2.8; endogenous in cells; host or cells: ROS 17/2.8 rat osteosarcoma cells
T2 sequence (P25961 27-591): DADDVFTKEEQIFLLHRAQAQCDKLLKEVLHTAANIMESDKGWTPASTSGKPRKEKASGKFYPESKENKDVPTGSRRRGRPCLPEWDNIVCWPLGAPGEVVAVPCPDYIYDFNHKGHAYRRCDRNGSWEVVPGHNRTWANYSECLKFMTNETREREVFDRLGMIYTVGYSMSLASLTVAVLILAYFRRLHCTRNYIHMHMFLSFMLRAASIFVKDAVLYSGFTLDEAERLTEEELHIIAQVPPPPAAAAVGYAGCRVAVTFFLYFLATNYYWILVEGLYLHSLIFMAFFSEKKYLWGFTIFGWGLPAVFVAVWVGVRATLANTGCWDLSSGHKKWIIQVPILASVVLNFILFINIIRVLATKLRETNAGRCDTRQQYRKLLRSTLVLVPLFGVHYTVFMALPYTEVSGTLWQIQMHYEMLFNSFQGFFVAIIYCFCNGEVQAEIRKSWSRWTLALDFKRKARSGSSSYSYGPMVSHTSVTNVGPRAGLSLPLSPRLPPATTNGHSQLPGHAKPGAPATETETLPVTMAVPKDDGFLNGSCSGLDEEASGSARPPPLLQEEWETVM

[3] = molecular target: T3, I^125 -labeled PTH binding to canine renal cortical membranes (Canis lupus familiaris, UniProt Q9TU31); assay: PTH binding assay (canine kidney)
T3 construct: from tissue; host or cells: canine renal cortex, membranes
T3 sequence (Q9TU31 29-595): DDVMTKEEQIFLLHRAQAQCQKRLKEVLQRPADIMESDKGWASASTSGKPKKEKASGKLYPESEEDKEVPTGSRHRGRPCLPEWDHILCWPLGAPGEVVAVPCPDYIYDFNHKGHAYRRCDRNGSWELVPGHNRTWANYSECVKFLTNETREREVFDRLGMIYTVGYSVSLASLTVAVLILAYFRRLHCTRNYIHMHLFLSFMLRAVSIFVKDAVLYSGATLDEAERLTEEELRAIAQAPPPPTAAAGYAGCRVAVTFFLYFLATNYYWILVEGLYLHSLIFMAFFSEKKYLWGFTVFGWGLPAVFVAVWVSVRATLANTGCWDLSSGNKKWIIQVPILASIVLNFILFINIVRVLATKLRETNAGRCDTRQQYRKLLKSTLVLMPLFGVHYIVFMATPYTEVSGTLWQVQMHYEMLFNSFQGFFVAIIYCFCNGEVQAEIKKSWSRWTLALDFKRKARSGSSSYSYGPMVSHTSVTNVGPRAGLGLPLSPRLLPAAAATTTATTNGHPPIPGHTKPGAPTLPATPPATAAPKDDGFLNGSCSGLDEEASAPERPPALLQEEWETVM

[4] = molecular target: T4, I^125 -labeled PTH binding to human osteosarcoma cells (BIO) (Homo sapiens, UniProt Q03431); assay: PTH binding assay (human osteosarcoma cells)
T4 construct: endogenous in cells; host or cells: human osteosarcoma cells (BIO)
T4 sequence (Q03431 27-593): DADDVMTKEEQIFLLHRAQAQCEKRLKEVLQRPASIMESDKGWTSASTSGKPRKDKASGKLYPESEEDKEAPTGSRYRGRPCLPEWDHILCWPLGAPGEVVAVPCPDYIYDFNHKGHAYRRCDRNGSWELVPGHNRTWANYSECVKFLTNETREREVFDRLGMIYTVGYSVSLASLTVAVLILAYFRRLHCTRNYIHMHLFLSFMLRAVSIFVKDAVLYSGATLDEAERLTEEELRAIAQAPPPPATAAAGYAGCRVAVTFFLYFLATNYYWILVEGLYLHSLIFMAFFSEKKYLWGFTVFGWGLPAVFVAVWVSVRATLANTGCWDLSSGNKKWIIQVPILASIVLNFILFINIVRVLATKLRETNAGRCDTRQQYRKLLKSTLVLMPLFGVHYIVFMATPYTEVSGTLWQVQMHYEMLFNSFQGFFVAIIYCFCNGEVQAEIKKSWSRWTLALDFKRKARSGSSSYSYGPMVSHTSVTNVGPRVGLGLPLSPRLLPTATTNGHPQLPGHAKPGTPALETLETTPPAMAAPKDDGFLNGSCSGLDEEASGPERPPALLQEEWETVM
Text: The results are as follows:

Compound | Ki [1] [nM] | Ki [2] [nM] | Ki [3] [nM] | Ki [4] [nM]
CCCC[C@H](NC(=O)[C@H](CO)NC(=O)[C@H](CO)NC(=O)[C@H](CC(C)C)NC(=O)[C@H](Cc1c[nH]cn1)NC(=O)[C@H](CCCCN)NC(=O)CNC(=O)[C@H](CC(C)C)NC(=O)[C@H](CC(N)=O)NC(=O)[C@H](Cc1c[nH]cn1)NC(=O)[C@H](CCCC)NC(=O)[C@@H](N)Cc1ccccc1)C(=O)N[C@@H](CCC(=O)O)C(=O)N[C@@H](CCCNC(=N)N)C(=O)N[C@H](C(=O)N[C@@H](CCC(=O)O)C(=O)N[C@@H](Cc1c[nH]c2ccccc12)C(=O)N[C@@H](CC(C)C)C(=O)N[C@@H](CCCNC(=N)N)C(=O)N[C@@H](CCCCN)C(=O)N[C@@H](CCCCN)C(=O)N[C@@H](CC(C)C)C(=O)N[C@@H](CCC(N)=O)C(=O)N[C@@H](CC(=O)O)C(=O)N[C@H](C(=O)N[C@@H](Cc1c[nH]cn1)C(=O)N[C@@H](CC(N)=O)C(=O)N[C@@H](Cc1ccc(O)cc1)C(N)=O)C(C)C)C(C)C [[Nle^8,18,Tyr^34]bPTH(7-34)NH2] | 145 ± 13 | 964 ± 170 | – | –
CSCC[C@H](NC(=O)[C@H](CO)NC(=O)[C@H](CO)NC(=O)[C@H](CC(C)C)NC(=O)[C@H](Cc1c[nH]cn1)NC(=O)[C@H](CCCCN)NC(=O)CNC(=O)[C@H](CC(C)C)NC(=O)[C@H](CC(N)=O)NC(=O)[C@H](Cc1c[nH]cn1)NC(=O)[C@H](CCSC)NC(=O)[C@@H](N)Cc1ccccc1)C(=O)N[C@@H](CCC(=O)O)C(=O)N[C@@H](CCCNC(=N)N)C(=O)N[C@H](C(=O)N[C@@H](CCC(=O)O)C(=O)N[C@@H](Cc1c[nH]c2ccccc12)C(=O)N[C@@H](CC(C)C)C(=O)N[C@@H](CCCNC(=N)N)C(=O)N[C@@H](CCCCN)C(=O)N[C@@H](CCCCN)C(=O)N[C@@H](CC(C)C)C(=O)N[C@@H](CCC(N)=O)C(=O)N[C@@H](CC(=O)O)C(=O)N[C@H](C(=O)N[C@@H](Cc1c[nH]cn1)C(=O)N[C@@H](CC(N)=O)C(=O)N[C@@H](Cc1ccc(O)cc1)C(N)=O)C(C)C)C(C)C [[Tyr^34]bPTH(7-34)NH2] | 76 ± 9 | 700 ± 90 | 45.8 ± 11.3 | 5.5 ± 1.6
